Reference: ChEMBL document CHEMBL5729293, “Inhibitors of KEAP1-Nrf2 protein-protein interaction” (2022)

Assay: Fluorescence Based Assay: The details of the KEAP1 KELCH ThermoFluor® Assay Construct are as follows: Kelch domain of human KEAP 1 (321-624 aa) was used in the assay. The protein was expressed in E. coli with 6His tag that was cleaved prior to receipt for use.ThermoFluor® experiments were carried out using instruments owned by Janssen Research and Discovery, L.L.C. through its acquisition of 3-Dimensional Pharmaceuticals, Inc. 1,8-ANS (Invitrogen) was used as a fluorescent dye. Protein (KEAP Kelch) and compound solutions were dispensed into black 384-well polypropylene PCR microplates (Abgene) and overlayed with silicone oil (1 μL, Fluka, type DC 200) to prevent evaporation.Reference wells contained KEAP Kelch without compounds, and the assay conditions were as follows: 1.1 μM (0.037mg/mL) KEAP Kelch, 80 μM 1,8-ANS, 25 mM PIPES, pH 7.0, 100 mM NaCl, 0.002% Tween-20.

Row | SMILES | Kd
1 | Cc1ccc2c(n1)OC1(CC1)CN(Cc1cc([C@H](CC(=O)O)c3ccn4c(C(F)(F)F)nnc4c3C)ccc1C)S2(=O)=O | < 1 nM
2 | Cc1ccc(C(CC(=O)O)c2ccn3c(C(F)(F)F)nnc3c2C)nc1CN1CC2CCCCN2c2ncc(Cl)cc2S1(=O)=O (stereo unspecified) | < 1 nM
3 | Cc1ccc([C@H](CC(=O)O)c2ccn3c(C(F)(F)F)nnc3c2C)cc1CN1CC2(COC2)Oc2ncccc2S1(=O)=O | < 1 nM
4 | Cc1ccc(C(CC(=O)O)c2ccn3c(C(F)F)nnc3c2C)cc1CN1CC2CCCCN2c2ncc(C#N)cc2S1(=O)=O (stereo unspecified) | < 1 nM
5 | Cc1cnc2c(c1)S(=O)(=O)N(Cc1cc([C@H](c3ccn4c(C5CC5)nnc4c3C)C(C)(C)C(=O)O)ccc1C)CC1(COC1)O2 | < 1 nM
6 | Cc1ccc([C@H](CC(=O)O)c2ccn3c(C(F)(F)F)nnc3c2C)cc1CN1C[C@H]2CCCCN2c2nc(C(N)=O)ccc2S1(=O)=O | < 1 nM
7 | Cc1ccc(C(CC(=O)O)c2ccn3c(C(F)(F)F)nnc3c2C)nc1CN1CC2CCCCN2c2ncc(C#N)cc2S1(=O)=O (stereo unspecified) | < 1 nM
8 | Cc1ccc([C@@H](CC(=O)O)c2ccc3c(nnn3C3CC3)c2C)cc1CN1C[C@]2(C)CCCN2c2ncccc2S1(=O)=O | < 1 nM
9 | Cc1ccc([C@@H](c2ccn3c(C(F)(F)F)nnc3c2C)C(C)(C)C(=O)O)cc1CN1C[C@@]2(CCOC2)Oc2ncccc2S1(=O)=O | < 1 nM
10 | Cc1ccc(C(CC(=O)O)c2ccn3c(C(F)(F)F)nnc3c2C)nc1CN1CC2(COC2)Oc2ncccc2S1(=O)=O (stereo unspecified) | < 1 nM
11 | Cc1ccc([C@@H](CC(=O)O)c2cc(OC3CC3)c3c(c2)nnn3C)cc1CN1C[C@H]2CCCCN2c2ncccc2S1(=O)=O | < 1 nM
12 | Cc1ccc([C@H](CC(=O)O)c2ccn3c(C(F)F)nnc3c2C)cc1CN1CC2(COC2)Oc2ccccc2S1(=O)=O | < 1 nM
13 | Cc1ccc([C@H](CC(=O)O)c2ccn3c(C(F)(F)F)nnc3c2C)nc1CN1CC2(COC2)Oc2ncccc2S1(=O)=O | < 1 nM
14 | Cc1ccc([C@@H](c2ccc3c(nnn3CC3CC3)c2C)C(C)(C)C(=O)O)nc1CN1CC2(CCOCC2)Oc2nc(OCCN3CCOCC3)ccc2S1(=O)=O | < 1 nM
15 | Cc1ccc([C@@H](CC(=O)O)c2ccn3c(C(F)F)nnc3c2C)cc1CN1C[C@H]2CCCCN2c2ncc(C#N)cc2S1(=O)=O | < 1 nM
16 | Cc1ccc([C@@H](c2ccn3c(C(F)(F)F)nnc3c2C)C(C)(C)C(=O)O)cc1CN1CC2(CC2)Oc2nc(OCCN3CC(F)C3)c(C)cc2S1(=O)=O | < 1 nM
17 | Cc1ccc([C@H](CC(=O)O)c2ccn3c(C(F)F)nnc3c2C)cc1CN1C[C@H]2CCCN2c2ncc(C#N)cc2S1(=O)=O | < 1 nM
18 | Cc1cnc2c(c1)S(=O)(=O)N(Cc1cc([C@@H](c3ccn4c(C(F)F)nnc4c3C)C(C)(C)C(=O)O)ccc1C)CC1(COC1)O2 | < 1 nM
19 | Cc1cnc2c(c1)S(=O)(=O)N(Cc1cc([C@H](CC(=O)O)c3ccn4c(C(F)(F)F)nnc4c3C)ccc1Cl)CC1CCCCN21 (stereo partly specified) | < 1 nM
20 | Cc1ccc(C(CC(=O)O)c2ccn3c(C(F)(F)F)nnc3c2C)cc1CN1C[C@H]2CCCN2c2ccccc2S1(=O)=O (stereo partly specified) | < 1 nM
21 | Cc1ccc(C(CC(=O)O)c2ccn3c(C(F)(F)F)nnc3c2C)nc1CN1CC2(COC2)Oc2ccccc2S1(=O)=O (stereo unspecified) | < 1 nM
22 | Cc1cnc2c(c1)S(=O)(=O)N(Cc1nc(C(CC(=O)O)c3ccn4c(C(F)(F)F)nnc4c3C)ccc1C)C[C@@H]1CCCCN21 (stereo partly specified) | < 1 nM

Row | SMILES | Kd
23 | Cc1ccc([C@@H](c2ccn3c(C(F)(F)F)nnc3c2C)C(C)(C)C(=O)O)cc1CN1CC2(CC2)Oc2nc(OCCN3CCCCC3)c(C)cc2S1(=O)=O | < 1 nM
24 | Cc1ccc([C@H](c2ccn3c(C(F)(F)F)nnc3c2C)C(C)(C)C(=O)O)cc1CN1CC2(CCOCC2)Oc2nc(NC(C)CN3CCCCC3)c(C)cc2S1(=O)=O (stereo partly specified) | < 1 nM
25 | Cc1ccc([C@@H](CC(=O)O)c2ccn3c(C(F)(F)F)nnc3c2C)cc1CN1C[C@@H]2CCCCN2c2ncccc2S1(=O)=O | < 1 nM
26 | Cc1cnc2c(c1)S(=O)(=O)N(Cc1cc([C@@H](c3ccc4c(nnn4C4CC4)c3C)C(C)(C)C(=O)O)ccc1C)CC1(CCNCC1)O2 | < 1 nM
27 | Cc1ccc([C@@H](CC(=O)O)c2ccn3c(C(F)(F)F)nnc3c2C)cc1CN1CC2(COC2)Oc2ccccc2S1(=O)=O | < 1 nM
28 | CC[C@@H]1CN(Cc2cc([C@@H](CC(=O)O)c3ccn4c(C(F)F)nnc4c3C)ccc2C)S(=O)(=O)c2cccnc2O1 | < 1 nM
29 | Cc1ccc([C@H](CC(=O)O)c2ccn3c(C(F)(F)F)nnc3c2C)cc1CN1C[C@H]2CCCN2c2ncc(C#N)cc2S1(=O)=O | < 1 nM
30 | Cc1ccc([C@@H](c2ccn3c(C(F)(F)F)nnc3c2C)C(C)(C)C(=O)O)cc1CN1CC2(CC2)Oc2nc(OCCN3CCCC3)c(C)cc2S1(=O)=O | < 1 nM
31 | Cc1ccc([C@@H](CC(=O)O)c2ccn3c(C(F)(F)F)nnc3c2C)cc1CN1C[C@H]2CCCN2c2ccccc2S1(=O)=O | < 1 nM
32 | Cc1ccc(C(c2ccn3c(C(F)(F)F)nnc3c2C)C(C)(C)C(=O)O)cc1CN1CC2(CCOCC2)Oc2nc(N[C@H](C)CCO)ccc2S1(=O)=O (stereo partly specified) | < 1 nM
33 | Cc1ccc([C@H](c2ccn3c(C(F)(F)F)nnc3c2C)C(C)(C)C(=O)O)cc1CN1CC2(CCOCC2)Oc2nc(OCCN3CCNCC3)ccc2S1(=O)=O | < 1 nM
34 | Cc1ccc(C(c2ccn3c(C(F)F)nnc3c2C)C(C)(C)C(=O)O)cc1CN1CC2(CCOCC2)Oc2ncccc2S1(=O)=O (stereo unspecified) | < 1 nM
35 | Cc1c(C(CC(=O)O)c2ccc(Cl)c(CN3CC4CCCCN4c4ncc(F)cc4S3(=O)=O)c2)ccn2c(C(F)(F)F)nnc12 (stereo unspecified) | < 1 nM
36 | CCn1nnc2c(C)c([C@H](CC(=O)O)c3ccc(C)c(CN4C[C@@H]5CCCCN5c5ncccc5S4(=O)=O)n3)ccc21 | < 1 nM
37 | Cc1ncc([C@H](c2ccn3c(C(F)(F)F)nnc3c2C)C(C)(C)C(=O)O)cc1CN1CC2(CCOCC2)Oc2ncccc2S1(=O)=O | < 1 nM
38 | CCc1c([C@@H](CC(=O)O)c2ccc(C)c(CN3C[C@H]4CCCCN4c4ncc(C)cc4S3(=O)=O)c2)ccn2c(C(F)(F)F)nnc12 | < 1 nM
39 | Cc1ccc([C@@H](CC(=O)O)c2cc(OC(F)F)c3c(c2)nnn3C)cc1CN1C[C@H]2CCCN2c2ncccc2S1(=O)=O | < 1 nM
40 | Cc1ccc([C@H](CC(=O)O)c2ccn3c(C(F)(F)F)nnc3c2C)cc1CN1C[C@H]2COCCN2c2ncc(C#N)cc2S1(=O)=O | < 1 nM
41 | Cc1ncc([C@@H](c2ccn3c(C(F)(F)F)nnc3c2C)C(C)(C)C(=O)O)cc1CN1C[C@@H]2CCCCN2c2ncc(C#N)cc2S1(=O)=O | < 1 nM
42 | COC1CCN(CCOc2nc3c(cc2C)S(=O)(=O)N(Cc2cc([C@@H](c4ccn5c(C(F)(F)F)nnc5c4C)C(C)(C)C(=O)O)ccc2C)CC2(CC2)O3)CC1 | < 1 nM
43 | Cc1ccc(C(CC(=O)O)c2ccn3c(C(F)F)nnc3c2C)cc1CN1CC2(CC2)Oc2ncc(Cl)cc2S1(=O)=O (stereo unspecified) | < 1 nM
44 | Cc1ccc([C@H](CC(=O)O)c2ccc3c(nnn3C3CC3)c2C)cc1CN1CC2(COC2)Oc2ccccc2S1(=O)=O | < 1 nM

Row | SMILES | Kd
45 | Cc1ccc([C@H](CC(=O)O)c2ccn3c(C(F)F)nnc3c2C)cc1CN1CC2(CC2)Oc2ncc(F)cc2S1(=O)=O | < 1 nM
46 | Cc1ccc([C@H](CC(=O)O)c2ccc3c(nnn3CC3CC3)c2C)cc1CN1C[C@H]2CCCN2c2ncccc2S1(=O)=O | < 1 nM
47 | Cc1cnc2c(c1)S(=O)(=O)N(Cc1cc([C@@H](c3ccn4c(C(F)(F)F)nnc4c3C)C(C)(C)C(=O)O)ncc1C)CC1(CC1)O2 | < 1 nM
48 | Cc1ccc([C@@H](CC(=O)O)c2ccn3c(C(F)(F)F)nnc3c2C)cc1CN1C[C@H]2CCCN2c2ncccc2S1(=O)=O | < 1 nM
49 | Cc1cc2cc(C(CC(=O)O)c3ccc(C)c(CN4C[C@H]5CCCCN5c5ncccc5S4(=O)=O)c3)n(C)c2nn1 (stereo partly specified) | < 1 nM
50 | Cc1cnc([C@@H](c2ccn3c(C(F)(F)F)nnc3c2C)C(C)(C)C(=O)O)cc1CN1CC2(CCOCC2)Oc2nc(OCCN3CCCC3)c(C)cc2S1(=O)=O | < 1 nM
51 | Cc1ccc([C@H](CC(=O)O)c2ccn3c(C(F)F)nnc3c2C)cc1CN1C[C@@H]2CCCN2c2ncc(C#N)cc2S1(=O)=O | < 1 nM
52 | CCn1nnc2c(C)c(C(CC(=O)O)c3ccc(C)c(CN4CC5(CCOCC5)Oc5ccc(F)cc5S4(=O)=O)n3)ccc21 (stereo unspecified) | < 1 nM
53 | Cc1ccc([C@@H](c2ccn3c(C(F)(F)F)nnc3c2C)C(C)(C)C(=O)O)cc1CN1CC2(CCOCC2)Oc2ncccc2S1(=O)=O | < 1 nM
54 | Cc1ccc([C@@H](c2ccn3c(C(F)F)nnc3c2C)C(C)(C)C(=O)O)nc1CN1CC2(CCOCC2)Oc2nc(OCCN3CCCCC3)c(C)cc2S1(=O)=O | < 1 nM
55 | Cc1ccc([C@@H](CC(=O)O)c2ccn3c(C(F)(F)F)nnc3c2C)nc1CN1C[C@@H]2CCCCN2c2ncccc2S1(=O)=O | < 1 nM
56 | Cc1ccc([C@@H](CC(=O)O)c2ccn3c(C(F)F)nnc3c2C)cc1CN1CC2(CC2)Oc2ncc(Cl)cc2S1(=O)=O | < 1 nM
57 | Cc1ccc([C@@H](c2ccn3c(C(F)F)nnc3c2C)C(C)(C)C(=O)O)cc1CN1CC2(CC2)Oc2nc(OCCN3CCCC3)c(C)cc2S1(=O)=O | < 1 nM
58 | Cc1ccc([C@@H](CC(=O)O)c2ccc3c(nnn3C3CC3)c2C)cc1CN1C[C@H]2CCCCN2c2ncccc2S1(=O)=O | < 1 nM
59 | Cc1ccc([C@H](CC(=O)O)c2ccn3c(C4CC4)nnc3c2C)cc1CN1CC2(CC2)Oc2ncc(F)cc2S1(=O)=O | < 1 nM
60 | Cc1ccc([C@H](CC(=O)O)c2ccc3c(nnn3C3CC3)c2C)cc1CN1C[C@H]2CCCCN2c2ncccc2S1(=O)=O | < 1 nM
61 | Cc1ccc(C(c2ccn3c(C(F)(F)F)nnc3c2C)C(C)(C)C(=O)O)cc1CN1CC2(CCOCC2)Oc2nc(N[C@@H](C)CCO)ccc2S1(=O)=O (stereo partly specified) | < 1 nM
62 | Cc1ccc([C@H](CC(=O)O)c2ccn3c(C(F)(F)F)nnc3c2C)nc1CN1CC2(CC2)Oc2ncc(F)cc2S1(=O)=O | < 1 nM
63 | Cc1ccc(C(CC(=O)O)c2ccc3c(nnn3CC3CC3)c2C)cc1CN1C[C@@H]2CCCCN2c2ncccc2S1(=O)=O (stereo partly specified) | < 1 nM
64 | CCn1nnc2c(C)c(C(CC(=O)O)c3ccc(C)c(CN4C[C@@H]5CCCN5c5ncccc5S4(=O)=O)c3)ccc21 (stereo partly specified) | < 1 nM
65 | Cc1cnc2c(c1)S(=O)(=O)N(Cc1cc(C(c3ccn4c(C(F)(F)F)nnc4c3C)C(C)(C)C(=O)O)cnc1C)CC1(CCOCC1)O2 (stereo unspecified) | < 1 nM
66 | Cc1ccc(C(CC(=O)O)c2ccn3c(C(F)F)nnc3c2C)cc1CN1C[C@]2(C)CCCN2c2ncccc2S1(=O)=O (stereo partly specified) | < 1 nM
